Laboratory results reported in patent US12398154B2, “Azaquinazoline pan-KRas inhibitors” (Mirati Therapeutics, Inc., priority 2020, dated 2025).
pIC50: −log10 of the molar value.

Assays:
KRas G12D = KRas G12D (Homo sapiens, UniProt P01116, G12D); experiment: biochemical;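 further: TR-FRET displacement binding assay on KRas, read after a one-hour incubation at room temperature, IC50 fitted from percent-of-control values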
Protocol: (§1) The ability of a compound to bind to KRas was measured using a TR-FRET displacement assay. […] After a 60-minute incubation at room temperature, the reaction was measured using a BMG LABTECH CLARIO star Plus via TR-FRET. […] The POC values were fit to a 4-parameter IC50 equation and the IC50 value reported.

KRas G12V = KRas G12V (Homo sapiens, UniProt P01116, G12V); experiment: biochemical;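 further: KRas binding measured by TR-FRET displacement at room temperature, IC50 fitted from percent of control values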
Protocol: as §1

KRas G12R = KRas G12R (Homo sapiens, UniProt P01116, G12R); experiment: biochemical;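 further: TR-FRET displacement assay of compound binding to KRas, read after one hour at room temperature, potency from a four-parameter fit of percent-of-control values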
Protocol: as §1

pERK in MKN1 cells = experiment: Inhibition of KRas phosphorylation of ERK (Cisbio HTRF pERK assay); conditions: Homo sapiens, MKN-1, 3 h, read-out: Inhibition (HTRF IC50) of KRas-mediated Phosphorylation of ERK, MKN1
pERK in PSN1 cells = experiment: as above; conditions: Homo sapiens, PSN1, 3 h, read-out: Inhibition (HTRF IC50) of KRas-mediated Phosphorylation of ERK, PSN1
pERK in ASPC1 cells = experiment: as above; conditions: Homo sapiens, ASPC1, read-out: Inhibition (HTRF IC50) of KRas-mediated Phosphorylation of ERK, AsPC-1
pERK in H727 cells = experiment: as above; conditions: Homo sapiens, NCI-H727, read-out: Inhibition (HTRF IC50) of KRas-mediated Phosphorylation of ERK, H727

Sequence of KRas G12V (P01116 1-169 isoform P01116-2 G12V): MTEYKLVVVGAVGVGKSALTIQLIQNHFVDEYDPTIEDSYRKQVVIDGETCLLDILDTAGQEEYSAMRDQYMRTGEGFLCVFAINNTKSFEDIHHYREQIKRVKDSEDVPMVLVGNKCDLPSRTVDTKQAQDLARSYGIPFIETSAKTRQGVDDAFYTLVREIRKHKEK
Sequence of KRas G12R (P01116 1-169 isoform P01116-2 G12R): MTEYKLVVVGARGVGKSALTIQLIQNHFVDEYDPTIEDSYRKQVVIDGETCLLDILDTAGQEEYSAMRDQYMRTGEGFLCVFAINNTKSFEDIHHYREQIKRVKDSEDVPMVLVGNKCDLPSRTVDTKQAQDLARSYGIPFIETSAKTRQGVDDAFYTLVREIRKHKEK
Sequence of KRas G12D (P01116 1-169 isoform P01116-2 G12D): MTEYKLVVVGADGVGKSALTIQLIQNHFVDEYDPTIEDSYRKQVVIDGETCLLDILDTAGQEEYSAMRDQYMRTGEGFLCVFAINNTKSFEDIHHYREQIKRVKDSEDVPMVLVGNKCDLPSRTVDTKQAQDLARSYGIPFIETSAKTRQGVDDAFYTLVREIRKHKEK

## CCc1c(F)ccc2cc(O)cc(-c3ncc4c(NCCC5CNC(=O)N5)nc(OC[C@@]56CCCN5C[C@H](F)C6)nc4c3F)c12 (stereo partly drawn) [Example 382, 4-(2-((7-(8-ethyl-7-fluoro-3-hydroxynaphthalen-1-yl)-8-fluoro-2-(((2R,7aS)-2-fluorohexahydro-1H-pyrrolizin-7a-yl)methoxy)pyrido[4,3-d]pyrimidin-4-yl)amino)ethyl) imidazolidin-2-one]
KRas G12D
  pIC50: 8.05
KRas G12V
  pIC50: ≥ 8.70
KRas G12R
  pIC50: 8.52
pERK in MKN1 cells
  pIC50: 6.11
pERK in PSN1 cells
  pIC50: ≤ 5.00
pERK in ASPC1 cells
  pIC50: ≤ 5.00
pERK in H727 cells
  pIC50: 5.23

## CCc1c(F)ccc2cc(O)cc(-c3ncc4c(NCc5cc(C(N)=O)nn5C)nc(OC[C@@]56CCCN5C[C@H](F)C6)nc4c3F)c12 [Example 385, 5-(((7-(8-ethyl-7-fluoro-3-hydroxynaphthalen-1-yl)-8-fluoro-2-(((2R,7aS)-2-fluorohexahydro-1H-pyrrolizin-7a-yl)methoxy)pyrido[4,3-d]pyrimidin-4-yl)amino)methyl)-1-methyl-1H-pyrazole-3-carboxamide]
KRas G12D
  pIC50: ≥ 8.70
KRas G12V
  pIC50: ≥ 8.70
KRas G12R
  pIC50: ≥ 8.70
pERK in MKN1 cells
  pIC50: 6.38
pERK in PSN1 cells
  pIC50: ≤ 5.00
pERK in ASPC1 cells
  pIC50: ≤ 5.00
pERK in H727 cells
  pIC50: 5.33

## C#Cc1c(F)ccc2cc(O)cc(-c3ncc4c(N5CCCC6(CNC(=O)N6)C5)nc(OC[C@@]56CCCN5C[C@H](F)C6)nc4c3F)c12 (stereo partly drawn) [Example 395, 7-(7-(8-ethynyl-7-fluoro-3-hydroxynaphthalen-1-yl)-8-fluoro-2-(((2R,7aS)-2-fluorohexahydro-1H-pyrrolizin-7a-yl)methoxy)pyrido[4,3-d]pyrimidin-4-yl)-1,3,7-triazaspiro[4.5]decan-2-one]
KRas G12D
  pIC50: ≥ 8.70
KRas G12V
  pIC50: ≥ 8.70
KRas G12R
  pIC50: ≥ 8.70
pERK in MKN1 cells
  pIC50: 6.52
pERK in PSN1 cells
  pIC50: ≤ 5.00
pERK in ASPC1 cells
  pIC50: 6.32
pERK in H727 cells
  pIC50: 5.86

## C#Cc1c(F)ccc2cc(O)cc(-c3ncc4c(N5CCCC6(CNS(=O)(=O)N6)C5)nc(OC[C@@]56CCCN5C[C@H](F)C6)nc4c3F)c12 (stereo partly drawn) [Example 396, 7-(7-(8-ethynyl-7-fluoro-3-hydroxynaphthalen-1-yl)-8-fluoro-2-(((2R,7aS)-2-fluorohexahydro-1H-pyrrolizin-7a-yl)methoxy)pyrido[4,3-d]pyrimidin-4-yl)-2-thia-1,3,7-triazaspiro[4.5]decane 2,2-dioxide]
KRas G12D
  pIC50: ≥ 8.70
KRas G12V
  pIC50: 8.52
KRas G12R
  pIC50: 8.52
pERK in MKN1 cells
  pIC50: 6.28
pERK in PSN1 cells
  pIC50: ≤ 5.00
pERK in ASPC1 cells
  pIC50: 5.51
pERK in H727 cells
  pIC50: 5.13

## O=C1NCC12CCCN(c1nc(OC[C@@]34CCCN3C[C@H](F)C4)nc3c(F)c(-c4cc(O)cc5ccc(F)c(Br)c45)ncc13)C2 (stereo partly drawn) [Example 406, 6-(7-(8-bromo-7-fluoro-3-hydroxynaphthalen-1-yl)-8-fluoro-2-(((2R,7aS)-2-fluorohexahydro-1H-pyrrolizin-7a-yl)methoxy)pyrido[4,3-d]pyrimidin-4-yl)-2,6-diazaspiro[3.5]nonan-1-one]
KRas G12D
  pIC50: 8.40
KRas G12V
  pIC50: 8.30
KRas G12R
  pIC50: 7.96
pERK in MKN1 cells
  pIC50: 6.51
pERK in PSN1 cells
  pIC50: ≤ 5.00
pERK in ASPC1 cells
  pIC50: 6.06
pERK in H727 cells
  pIC50: 6.13

## Nc1cc2n(n1)CCCN(c1nc(OC[C@@]34CCCN3C[C@H](F)C4)nc3c(F)c(-c4cc(O)cc5ccc(F)c(Br)c45)ncc13)C2 [Example 408, 4-(4-(2-amino-7,8-dihydro-4H-pyrazolo[1,5-a][1,4]diazepin-5(6H)-yl)-8-fluoro-2-(((2R,7aS)-2-fluorohexahydro-1H-pyrrolizin-7a-yl)methoxy)pyrido[4,3-d]pyrimidin-7-yl)-5-bromo-6-fluoronaphthalen-2-ol]
KRas G12D
  pIC50: ≥ 8.70
KRas G12V
  pIC50: ≥ 8.70
KRas G12R
  pIC50: ≥ 8.70
pERK in MKN1 cells
  pIC50: 6.45
pERK in PSN1 cells
  pIC50: ≤ 5.00
pERK in ASPC1 cells
  pIC50: 6.14
pERK in H727 cells
  pIC50: 6.24

## O=C1NC(=O)C2CN(c3nc(OC[C@@]45CCCN4C[C@H](F)C5)nc4c(F)c(-c5cc(O)cc6ccc(F)c(Cl)c56)ncc34)CC12 (stereo partly drawn) [Example 423, 5-(7-(8-chloro-7-fluoro-3-hydroxynaphthalen-1-yl)-8-fluoro-2-(((2R,7aS)-2-fluorohexahydro-1H-pyrrolizin-7a-yl)methoxy)pyrido[4,3-d]pyrimidin-4-yl)tetrahydropyrrolo[3,4-c]pyrrole-1,3(2H,3aH)-dione]
KRas G12D
  pIC50: ≥ 8.70
KRas G12V
  pIC50: ≥ 8.70
KRas G12R
  pIC50: ≥ 8.70
pERK in MKN1 cells
  pIC50: 6.96
pERK in PSN1 cells
  pIC50: ≤ 5.00
pERK in ASPC1 cells
  pIC50: 6.25
pERK in H727 cells
  pIC50: 5.65

## O=C1NCC12CCCN(c1nc(OC[C@@]34CCCN3C[C@H](F)C4)nc3c(F)c(-c4cc(O)cc5ccc(F)c(Cl)c45)ncc13)C2 (stereo partly drawn) [Example 424, 6-(7-(8-chloro-7-fluoro-3-hydroxynaphthalen-1-yl)-8-fluoro-2-(((2R,7aS)-2-fluorohexahydro-1H-pyrrolizin-7a-yl)methoxy)pyrido[4,3-d]pyrimidin-4-yl)-2,6-diazaspiro[3.5]nonan-1-one]
KRas G12D
  pIC50: 8.52
KRas G12V
  pIC50: 8.40
KRas G12R
  pIC50: 8.10
pERK in MKN1 cells
  pIC50: 7.02
pERK in PSN1 cells
  pIC50: 5.55
pERK in ASPC1 cells
  pIC50: 6.09
pERK in H727 cells
  pIC50: 5.89

## Nc1cc2n(n1)CCCN(c1nc(OC[C@@]34CCCN3C[C@H](F)C4)nc3c(F)c(-c4cc(O)cc5ccc(F)c(Cl)c45)ncc13)C2 [Example 426, 4-(4-(2-amino-7,8-dihydro-4H-pyrazolo[1,5-a][1,4]diazepin-5(6H)-yl)-8-fluoro-2-(((2R,7aS)-2-fluorohexahydro-1H-pyrrolizin-7a-yl)methoxy)pyrido[4,3-d]pyrimidin-7-yl)-5-chloro-6-fluoronaphthalen-2-ol]
KRas G12D
  pIC50: ≥ 8.70
KRas G12V
  pIC50: ≥ 8.70
KRas G12R
  pIC50: ≥ 8.70
pERK in MKN1 cells
  pIC50: 6.58
pERK in PSN1 cells
  pIC50: ≤ 5.00
pERK in ASPC1 cells
  pIC50: 6.19
pERK in H727 cells
  pIC50: 5.91

## CCc1c(F)ccc2cc(O)cc(-c3ncc4c(N5CCCC6(C5)C[S+]([O-])C6)nc(OC[C@@]56CCCN5C[C@H](F)C6)nc4c3F)c12 (stereo partly drawn) [Example 484, 6-(7-(8-ethyl-7-fluoro-3-hydroxynaphthalen-1-yl)-8-fluoro-2-(((2R,7aS)-2-fluorohexahydro-1H-pyrrolizin-7a-yl)methoxy)pyrido[4,3-d]pyrimidin-4-yl)-2-thia-6-azaspiro[3.5]nonane 2-oxide]
KRas G12D
  pIC50: 7.64
KRas G12V
  pIC50: 7.55
KRas G12R
  pIC50: 7.32
pERK in MKN1 cells
  pIC50: 5.98
pERK in PSN1 cells
  pIC50: ≤ 5.00
pERK in ASPC1 cells
  pIC50: 5.31
pERK in H727 cells
  pIC50: 5.52

## CCc1c(F)ccc2cc(O)cc(-c3ncc4c(N5C[C@H](O)CC[C@H](O)C5)nc(OC[C@@]56CCCN5C[C@H](F)C6)nc4c3F)c12 [Example 491, (3R,6S)-1-(7-(8-ethyl-7-fluoro-3-hydroxynaphthalen-1-yl)-8-fluoro-2-(((2R,7aS)-2-fluorohexahydro-1H-pyrrolizin-7a-yl)methoxy)pyrido[4,3-d]pyrimidin-4-yl)azepane-3,6-diol]
KRas G12D
  pIC50: 8.40
KRas G12V
  pIC50: 8.40
KRas G12R
  pIC50: 8.22
pERK in MKN1 cells
  pIC50: 6.74
pERK in PSN1 cells
  pIC50: ≤ 5.00
pERK in ASPC1 cells
  pIC50: 5.77
pERK in H727 cells
  pIC50: 5.81

## CCc1c(F)ccc2cc(O)cc(-c3ncc4c(N5CCOCC6(CCOCC6)C5)nc(OC[C@@]56CCCN5C[C@H](F)C6)nc4c3F)c12 [Example 500, 5-ethyl-6-fluoro-4-(8-fluoro-2-(((2R,7aS)-2-fluorohexahydro-1H-pyrrolizin-7a-yl)methoxy)-4-(3,8-dioxa-11-azaspiro[5.6]dodecan-11-yl)pyrido[4,3-d]pyrimidin-7-yl)naphthalen-2-ol]
KRas G12D
  pIC50: 6.63
KRas G12V
  pIC50: 6.98
KRas G12R
  pIC50: 6.99
pERK in MKN1 cells
  pIC50: 6.62
pERK in PSN1 cells
  pIC50: ≤ 5.00
pERK in ASPC1 cells
  pIC50: 5.96
pERK in H727 cells
  pIC50: 5.72

## CCc1c(F)ccc2cc(O)cc(-c3ncc4c(N5CCCOC(C)(C)C5)nc(OC[C@@]56CCCN5C[C@H](F)C6)nc4c3F)c12 [Example 501, 4-(4-(2,2-dimethyl-1,4-oxazepan-4-yl)-8-fluoro-2-(((2R,7aS)-2-fluorohexahydro-1H-pyrrolizin-7a-yl)methoxy)pyrido[4,3-d]pyrimidin-7-yl)-5-ethyl-6-fluoronaphthalen-2-ol]
KRas G12D
  pIC50: 6.22
KRas G12V
  pIC50: 6.77
KRas G12R
  pIC50: 6.75
pERK in MKN1 cells
  pIC50: 6.65
pERK in PSN1 cells
  pIC50: ≤ 5.00
pERK in ASPC1 cells
  pIC50: 5.69
pERK in H727 cells
  pIC50: 5.49

## CCc1c(F)ccc2cc(O)cc(-c3ncc4c(N5CCOC6(CCS(=O)(=O)CC6)C5)nc(OC[C@@]56CCCN5C[C@H](F)C6)nc4c3F)c12 [Example 502, 4-(7-(8-ethyl-7-fluoro-3-hydroxynaphthalen-1-yl)-8-fluoro-2-(((2R,7aS)-2-fluorohexahydro-1H-pyrrolizin-7a-yl)methoxy)pyrido[4,3-d]pyrimidin-4-yl)-1-oxa-9-thia-4-azaspiro[5.5]undecane 9,9-dioxide]
KRas G12D
  pIC50: 6.20
KRas G12V
  pIC50: 6.34
KRas G12R
  pIC50: 6.22
pERK in MKN1 cells
  pIC50: 5.71
pERK in PSN1 cells
  pIC50: ≤ 5.00
pERK in ASPC1 cells
  pIC50: 5.68
pERK in H727 cells
  pIC50: 5.19

## CCc1c(F)ccc2cc(O)cc(-c3ncc4c(N5CCOC6(CCS(=N)(=O)CC6)C5)nc(OC[C@@]56CCCN5C[C@H](F)C6)nc4c3F)c12 (stereo partly drawn) [Example 503, 4-(7-(8-ethyl-7-fluoro-3-hydroxynaphthalen-1-yl)-8-fluoro-2-(((2R,7aS)-2-fluorohexahydro-1H-pyrrolizin-7a-yl)methoxy)pyrido[4,3-d]pyrimidin-4-yl)-9-imino-1-oxa-9-thia-4-azaspiro[5.5]undecane 9-oxide]
KRas G12D
  pIC50: 6.52
KRas G12V
  pIC50: 7.09
KRas G12R
  pIC50: 6.91
pERK in MKN1 cells
  pIC50: ≤ 5.00
pERK in PSN1 cells
  pIC50: ≤ 5.00
pERK in ASPC1 cells
  pIC50: ≤ 5.00
pERK in H727 cells
  pIC50: ≤ 5.00
